Legend:
Type in all cases: cell-based
hTRPV1 channels = biological target: T1, hTRPV1 channels (Homo sapiens, UniProt Q8NER1); test: Ca2+ microfluorometry in HEK cells expressing hTRPV1 (capsaicin); details: 1 µM capsaicin; for TRPV1 Blockade (%) 5 µM: 5 µM compound; for TRPV1 Blockade (%) 50 µM: 50 µM compound
T1 construct: expressed in transfected cells; host or cells: HEK (stably transfected)
Description: β-Lactam and 2-ketopiperazine derivatives were also assayed for their activity in cell expressing hTRPV1 channels. No significant antagonist activity was measured for any derivatives within both chemotypes (Supplementary Tables S1, S2, and Fig. S3), indicating their selectivity for TRPM8 channels.
Human embryonic kidney cell line (HEK) stably transfected with rTRPM8 or h-TRPV1 were used as previously described. Briefly, cells were seeded in 96-well plates at a cell density of 30,000 cells 2 days before treatment. Buffer used was HBBS (in mM): 138 NaCl, 5.33 KCl, 1.26 CaCl2, 0.5 MgCl-6H2O, 0.4 MgSO4-7H2O, 4 NaHCO3 0.44 KH2PO4, 0.3 Na2HPO4, pH 7.4. The day of treatment the medium was replaced with 100 µL of the dye loading solution Fluo-4 NW supplemented with probenecid 2.5 mM. After incubation, plates were transferred to a fluorescence plate reader (Polastar BMG). In the experimental protocol, the baseline fluorescence was recorded ([…]) for 3 cycles. After, vehicle, compound at different concentrations and the corresponding antagonist, 10 µM AMTB for TRPM8 or 10 µM Ruthenium Red for TRPV1 were added to the well. Fluorescence intensity was recorded during 7 cycles more. Finally, the agonist 100 µM menthol for TRPM8 or 1 µM capsaicin for TRPV1 was added and fluorescence intensity was recorded during 10 cycles more.
Table S1. Activity at hTRPV1 of β–lactams derived from phenylalaninol conjugates
Compd. Isomer Isomer TRPV1 Blockade (%)
Table S2. Activity at hTRPV1 of 2-ketopiperazines derived from phenylalaninol

[1] = system: PSN1 (pancreas adenocarcinoma); test: SRB cytotoxicity assay, PSN1; details: 72 h, SRB; for TGI PSN1: total growth inhibition; for TGI PSN1 / CC50: unit inferred; for GI50 / CC50: Homo sapiens, PSN1; for CC50: read-out: LC50 PSN1
Description: Human tumor cell lines used in this study were purchased from the ATCC. A-549 (CCL-185), lung carcinoma; HT-29 (HTB-38), colorectal adenocarcinoma; MDA-MB-231 (HTB-26), breast adenocarcinoma; PSN1, pancreas adenocarcinoma.
All cell lines were maintained in DMEM (Dulbecco’s Modified Eagle's Medium) culture medium supplemented with 10% FBS (Fetal Bovine Serum), 100 Units/mL penicillin/streptomycin at 37 °C, 5% CO2 and 95% humidity.
Triplicate cultures were incubated for 72 h in the presence or absence of test compounds in dose–response curves (10 concentrations, typically ranging from 10 to 0.0026 µg/mL). A colorimetric assay using sulforhodamine B (SRB) was adapted for quantitative measurement of cell growth and cytotoxicity. A more detailed information on this assay is provides in the supplementary information. GI50 is the compound concentration that produces 50% inhibition on cell growth as compared to control cells.
In vitro bioassays for the detection of antitumor activity
The aim of this assay is to evaluate the in vitro cytostatic (ability to delay or arrest tumor cell growth) or cytotoxic (ability to kill tumor cells) activity of the samples […]
Name Nº ATCC Species Tissue Characteristics
A549 CCL-185 human lung lung carcinoma (NSCLC)
HT29 HTB-38 human colon colorectal adenocarcinoma
MDA-MB-231 HTB-26 human breast breast adenocarcinoma
PSN1 CRM-CRL-3211 human pancreas pancreas adenocarcinoma […]
A colorimetric assay, using Sulforhodamine B (SRB) reaction has been adapted to provide a quantitative measurement of cell growth and viability (following the technique described by Skehan et al. J. Natl. Cancer Inst. 1990, 82, 1107-1112 […]
This form of assay employs 96-well cell culture microplates following the standards of the American National Standards Institute and the Society for Laboratory […]
used in this study were obtained from the American Type Culture Collection (ATCC) and derive from different types of human cancer.
A549, HT29, MDA-MB-231 and PSN1 cells were maintained in Dulbecco’s
Modified Eagle Medium (DMEM) supplemented with 10% Fetal Bovine Serum (FBS), 2mM L-glutamine, 100 U/mL penicillin, and 100 U/mL streptomycin at 37 °C, 5% CO2 and 98% humidity. For the experiments, cells were harvested from subconfluent cultures using trypsinization and resuspended in fresh medium before counting and […]
A549, HT29, MDA-MB-231 and PSN1 cells were seeded in 96 well microtiter plates, at 5000 cells per well in aliquots of 150 µL, and allowed to attach to the plate surface for 18 hours (overnight) in drug free medium. After that, one control (untreated) plate of each cell line was fixed (as described below) and used for time zero reference value. Culture plates were then treated with test compounds (50 µL aliquots of 4X stock […]
solutions in complete culture medium plus 4% DMSO) using ten 2/5 serial dilutions (concentrations ranging from 10 to 0.003 µg/mL) and triplicate cultures (1% final concentration in DMSO). After 72 hours treatment, the antitumor effect was measured by using the SRB methodology: Briefly, cells were washed twice with PBS, fixed for 15 min in 1% glutaraldehyde solution at room temperature, rinsed twice in PBS, and stained in 0.4% SRB solution for 30 min at room temperature. Cells were then rinsed several times with 1% acetic acid solution and air-dried at room temperature. SRB was then extracted in 10 mM trizma base solution and the absorbance measured in an automated spectrophotometric plate reader at 490 nm.
Effects on cell growth and survival were estimated by applying the NCI algorithm (Boyd MR and Paull KD. Drug Dev. Res. 1995, 34, 91-109, DOI:10.1002/ddr.430340203). The values obtained in triplicate cultures were fitted by nonlinear regression to a four-parameters logistic curve by nonlinear regression analysis. . Using the absorbance measurements [time zero, (Tz), control growth, (C), and test growth in the presence of drug at the ten concentration levels (Ti)], the […]

60 tumor cell screen = 60 tumor cell screen at the National Cancer Institute; details: 10 µM concentration
Source text: A number of recent experimental evidences position TRPM channels as important players in cancer growth and progression. Among these channels, the aberrant expression of the TRPM8 subtype has been described in different human malignant tumors, including those of prostate, pancreas, breast, colon, and skin, among others. More importantly, sometimes the TRPM8 overexpression was associated to poor prognosis of cancer patients. […] Based on these precedents, in this work we first aimed at evaluating the antitumor activity of enantiopure compounds 24a and 29a. Initially, we assessed the growth inhibition percentage by a 10 µM concentration of these compounds on a 60 tumor cell screen at the National Cancer Institute (USA).

[2] = system: MDA-MB-231 (breast adenocarcinoma); test: SRB cytotoxicity assay, MDA-MB-231; details: at 10 µg/mL

T1 sequence (Q8NER1 whole entry): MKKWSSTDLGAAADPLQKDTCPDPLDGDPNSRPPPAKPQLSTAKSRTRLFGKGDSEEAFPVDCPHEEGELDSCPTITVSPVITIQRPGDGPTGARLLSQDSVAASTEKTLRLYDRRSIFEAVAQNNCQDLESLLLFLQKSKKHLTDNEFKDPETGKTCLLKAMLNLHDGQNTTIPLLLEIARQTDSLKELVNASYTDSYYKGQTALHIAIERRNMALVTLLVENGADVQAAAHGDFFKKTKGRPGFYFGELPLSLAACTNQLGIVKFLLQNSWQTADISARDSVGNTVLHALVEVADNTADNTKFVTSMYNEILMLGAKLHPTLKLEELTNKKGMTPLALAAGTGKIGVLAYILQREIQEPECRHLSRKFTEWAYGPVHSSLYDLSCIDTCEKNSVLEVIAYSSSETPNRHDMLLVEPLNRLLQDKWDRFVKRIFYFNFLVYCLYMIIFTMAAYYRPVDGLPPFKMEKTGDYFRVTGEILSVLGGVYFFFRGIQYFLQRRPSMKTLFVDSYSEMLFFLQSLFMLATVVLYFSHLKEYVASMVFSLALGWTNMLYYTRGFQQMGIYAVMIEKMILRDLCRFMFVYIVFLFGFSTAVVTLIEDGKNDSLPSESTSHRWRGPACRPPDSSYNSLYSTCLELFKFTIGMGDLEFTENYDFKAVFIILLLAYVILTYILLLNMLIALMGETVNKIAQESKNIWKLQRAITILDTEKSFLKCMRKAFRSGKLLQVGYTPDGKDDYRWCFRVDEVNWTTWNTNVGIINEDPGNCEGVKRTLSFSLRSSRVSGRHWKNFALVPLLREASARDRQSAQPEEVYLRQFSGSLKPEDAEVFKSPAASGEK

| TRPV1 Blockade (%) 5 µM (hTRPV1 channels) | TRPV1 Blockade (%) 50 µM (hTRPV1 channels) | SMILES | TGI PSN1 [1] | GI50 [1] | CC50 [1] | Growth inhibition in 60 tumor cell screen (60 tumor cell screen) | Cytotoxic activity against MDA-MB-231 [2] |
| --- | --- | --- | --- | --- | --- | --- | --- |
| 8.2±2.1% | 16.2±4.7% | C[C@@H]1C(=O)N(C[C@@H](Cc2ccccc2)NC(=O)OCc2ccccc2)[C@]1(Cc1ccccc1)C(=O)OCc1ccccc1 [Compound 29a, 4S-Benzyl-4-benzyloxycarbonyl-3S-methyl-1-[(2′R-benzyloxycarbonylamino-3′-phenyl)prop-1′-yl]-2-oxoazetidine] | > 17.3 µM | 6.42 µM | > 17.3 µM | non-selective, modest cytotoxic effects | – |
| 9.7±1.1% | 11.8±3.2% | C[C@@H]1C(=O)N(C[C@H](Cc2ccccc2)NC(=O)OCc2ccccc2)[C@]1(Cc1ccccc1)C(=O)OCc1ccccc1 [Compound 24a, 4S-Benzyl-4-benzyloxycarbonyl-3S-methyl-1-[(2′S-benzyloxycarbonylamino-3′-phenyl)prop-1′-yl]-2-oxoazetidine] | > 17.3 µM | 5.55 µM | > 17.3 µM | non-selective, modest cytotoxic effects | no activity |

Source: PMC7447632, “Highly functionalized β-lactams and 2-ketopiperazines as TRPM8 antagonists with antiallodynic activity” (Scientific Reports, 2020)
